Assay results: patent publication US6465395B2, “Substituted methylene pyrazolinones and the herbicidal use thereof” (BASF Aktiengesellschaft, priority 2000, dated 2002)

Tests used:
Type in all cases: in vivo
[1] = system: GOSHI, Cotton, Gossypium hirsutum, L.; experiment: Postemergence herbicidal evaluation; conditions: crop (cotton)
Description: (§1) The postemergence herbicidal activity of the compounds of the present invention is evaluated by the following tests. Seedling plants are grown in jiffy flats for about two weeks. The test compounds are dispersed in 80/20 (v/v) acetone/water mixtures containing 1.0% SUN-IT®II, a methylated seed oil, in sufficient quantities to provide the equivalent of about 0.006 kg/ha to 0.800 kg/ha of active compound when applied to the plants through a spray nozzle operating at 40 psi for a predetermined time. After spraying, the plants are placed on greenhouse benches and are cared for in accordance with conventional greenhouse procedures. Approximately two to three weeks after treatment, the seedling plants are examined and rated according to the rating system set forth below. Where more than one test is involved for a given compound, the data are averaged.

[2] = system: ZEAMX, Corn, Field, Zea mays, L.; experiment: Postemergence herbicidal evaluation; conditions: crop (corn)
Description: as §1

[3] = system: SETVI, Foxtail, Green, Setaria viridis, (L.) Beau; experiment: Postemergence herbicidal evaluation
Description: as §1

[4] = system: ECHCG, Barnyardgrass, Echinochloa crus-galli, (L.) Beau; experiment: Postemergence herbicidal evaluation
Description: as §1

[5] = system: ABUTH, Velvetleaf, Abutilon theophrasti, Medic.; experiment: Postemergence herbicidal evaluation
Description: as §1

[6] = system: ORYSAT, Rice, Tebonnet, Oryza sativa, (L.) Tebonnet; experiment: Postemergence herbicidal evaluation; conditions: crop (rice)
Description: as §1

[7] = system: PANDI, Panicum, Fall, Panicum dichotomiflorum, Michx; experiment: Postemergence herbicidal evaluation
Description: as §1

[8] = system: CHEAL, Lambsquarters, Chenopodium album, L.; experiment: Postemergence herbicidal evaluation
Description: as §1

[9] = system: AMBEL, Ragweed, Ambrosia artemisifolia, L.; experiment: Postemergence herbicidal evaluation
Description: as §1

[10] = system: IPOSS, Morningglory spp., Ipomoea spp.; experiment: Postemergence herbicidal evaluation
Description: as §1

[11] = system: ZEAMX, Corn, Field, Zea mays, L.; experiment: Preemergence herbicidal evaluation; conditions: crop (corn)
Excerpt: (§2) The preemergence herbicidal activity of the test compounds of the present invention is exemplified by the following tests in which the seeds of a variety of monocotyledonous and dicotyledonous plants are separately mixed with potting soil and planted on top of approximately one inch of soil in separate pint cups. After planting, the cups are sprayed with the selected aqueous acetone solution containing test compound in sufficient quantity to provide the equivalent of about 0.0125 kg/ha to 0.800 kg/ha of test compound per cup. The treated cups are then placed on greenhouse benches, watered and cared for in accordance with conventional greenhouse procedures. Approximately two to four weeks after treatment, the tests are terminated and each cup is examined and rated according to the rating system provided in Example 12. When more than one test is performed for a given compound, the data are averaged.

[12] = system: SETVI, Foxtail, Green, Setaria viridis, (L.) Beau; experiment: Preemergence herbicidal evaluation
Excerpt: as §2

[13] = system: ECHCG, Barnyardgrass, Echinochloa crus-galli, (L.) Beau; experiment: Preemergence herbicidal evaluation
Excerpt: as §2

[14] = system: ABUTH, Velvetleaf, Abutilon theophrasti, Medic.; experiment: Preemergence herbicidal evaluation
Excerpt: as §2

[15] = system: ORYSAT, Rice, Tebonnet, Oryza sativa, (L.) Tebonnet; experiment: Preemergence herbicidal evaluation; conditions: crop (rice)
Excerpt: as §2

[16] = system: PANDI, Panicum, Fall, Panicum dichotomiflorum, Michx; experiment: Preemergence herbicidal evaluation
Excerpt: as §2

[17] = system: GOSHI, Cotton, Gossypium hirsutum, L.; experiment: Preemergence herbicidal evaluation; conditions: crop (cotton)
Excerpt: as §2

[18] = system: CHEAL, Lambsquarters, Chenopodium album, L.; experiment: Preemergence herbicidal evaluation
Excerpt: as §2

[19] = system: AMBEL, Ragweed, Ambrosia artemisifolia, L.; experiment: Preemergence herbicidal evaluation
Excerpt: as §2

[20] = system: IPOSS, Morningglory spp., Ipomoea spp.; experiment: Preemergence herbicidal evaluation
Excerpt: as §2

CCCS/C(=C1\C=NN(CC)C1=O)c1ccc2c(c1C)/C(=N/OC)CCS2(=O)=O [Example 8a, 1-Ethyl-4-[(E)-(5-methyl-4-oxothiochroman-6-yl)(propylthio)methylene]-2-pyrazolin-5-one 4′-[(E)-O-methyloxime], S,S-dioxide]
Herbicide rating GOSHI ([1]; 0.0500 kg/ha): 0.0
Herbicide rating GOSHI ([1]; 0.1000 kg/ha): 0.0
Herbicide rating GOSHI ([1]; 0.2000 kg/ha): 0.0
Herbicide rating GOSHI ([1]; 0.4000 kg/ha): 3.0
Herbicide rating GOSHI ([1]; 0.8000 kg/ha): 6.0
Herbicide rating ZEAMX ([2]; 0.0500 kg/ha): 0.0
Herbicide rating ZEAMX ([2]; 0.1000 kg/ha): 0.0
Herbicide rating ZEAMX ([2]; 0.2000 kg/ha): 0.0
Herbicide rating ZEAMX ([2]; 0.4000 kg/ha): 0.0
Herbicide rating ZEAMX ([2]; 0.8000 kg/ha): 0.5
Herbicide rating SETVI ([3]; 0.0500 kg/ha): 1.0
Herbicide rating SETVI ([3]; 0.1000 kg/ha): 4.0
Herbicide rating SETVI ([3]; 0.2000 kg/ha): 5.0
Herbicide rating SETVI ([3]; 0.4000 kg/ha): 8.0
Herbicide rating SETVI ([3]; 0.8000 kg/ha): 9.0
Herbicide rating ECHCG ([4]; 0.0500 kg/ha): 8.0
Herbicide rating ECHCG ([4]; 0.1000 kg/ha): 8.0
Herbicide rating ECHCG ([4]; 0.2000 kg/ha): 8.0
Herbicide rating ECHCG ([4]; 0.4000 kg/ha): 9.0
Herbicide rating ECHCG ([4]; 0.8000 kg/ha): 9.0
Herbicide rating ABUTH ([5]; 0.0500 kg/ha): 0.0
Herbicide rating ABUTH ([5]; 0.1000 kg/ha): 1.0
Herbicide rating ABUTH ([5]; 0.2000 kg/ha): 2.0
Herbicide rating ABUTH ([5]; 0.4000 kg/ha): 8.0
Herbicide rating ABUTH ([5]; 0.8000 kg/ha): 6.0
Herbicide rating ORYSAT ([6]; 0.0500 kg/ha): 0.0
Herbicide rating ORYSAT ([6]; 0.1000 kg/ha): 0.7
Herbicide rating ORYSAT ([6]; 0.2000 kg/ha): 1.5
Herbicide rating ORYSAT ([6]; 0.4000 kg/ha): 5.0
Herbicide rating ORYSAT ([6]; 0.8000 kg/ha): 5.0
Herbicide rating PANDI ([7]; 0.0500 kg/ha): 3.0
Herbicide rating PANDI ([7]; 0.1000 kg/ha): 6.0
Herbicide rating PANDI ([7]; 0.2000 kg/ha): 7.0
Herbicide rating PANDI ([7]; 0.4000 kg/ha): 6.0
Herbicide rating PANDI ([7]; 0.8000 kg/ha): 9.0
Herbicide rating CHEAL ([8]; 0.0500 kg/ha): 7.0
Herbicide rating CHEAL ([8]; 0.1000 kg/ha): 9.0
Herbicide rating CHEAL ([8]; 0.2000 kg/ha): 9.0
Herbicide rating CHEAL ([8]; 0.4000 kg/ha): 9.0
Herbicide rating CHEAL ([8]; 0.8000 kg/ha): 9.0
Herbicide rating AMBEL ([9]; 0.0500 kg/ha): 2.0
Herbicide rating AMBEL ([9]; 0.1000 kg/ha): 3.0
Herbicide rating AMBEL ([9]; 0.2000 kg/ha): 6.0
Herbicide rating AMBEL ([9]; 0.4000 kg/ha): 7.0
Herbicide rating AMBEL ([9]; 0.8000 kg/ha): 8.0
Herbicide rating IPOSS ([10]; 0.0500 kg/ha): 0.0
Herbicide rating IPOSS ([10]; 0.1000 kg/ha): 0.0
Herbicide rating IPOSS ([10]; 0.2000 kg/ha): 0.0
Herbicide rating IPOSS ([10]; 0.4000 kg/ha): 2.0
Herbicide rating IPOSS ([10]; 0.8000 kg/ha): 4.0
Herbicide rating ZEAMX ([11]; 0.4000 kg/ha): 0.0
Herbicide rating ZEAMX ([11]; 0.8000 kg/ha): 0.0
Herbicide rating SETVI ([12]; 0.4000 kg/ha): 4.0
Herbicide rating SETVI ([12]; 0.8000 kg/ha): 5.0
Herbicide rating ECHCG ([13]; 0.4000 kg/ha): 0.0
Herbicide rating ECHCG ([13]; 0.8000 kg/ha): 2.0
Herbicide rating ABUTH ([14]; 0.4000 kg/ha): 2.0
Herbicide rating ABUTH ([14]; 0.8000 kg/ha): 6.0
Herbicide rating ORYSAT ([15]; 0.4000 kg/ha): 0.0
Herbicide rating ORYSAT ([15]; 0.8000 kg/ha): 3.0
Herbicide rating PANDI ([16]; 0.4000 kg/ha): 5.0
Herbicide rating PANDI ([16]; 0.8000 kg/ha): 8.0
Herbicide rating GOSHI ([17]; 0.4000 kg/ha): 0.0
Herbicide rating GOSHI ([17]; 0.8000 kg/ha): 2.0
Herbicide rating CHEAL ([18]; 0.4000 kg/ha): 9.0
Herbicide rating CHEAL ([18]; 0.8000 kg/ha): 9.0
Herbicide rating AMBEL ([19]; 0.4000 kg/ha): 3.0
Herbicide rating AMBEL ([19]; 0.8000 kg/ha): 6.0
Herbicide rating IPOSS ([20]; 0.4000 kg/ha): 0.0
Herbicide rating IPOSS ([20]; 0.8000 kg/ha): 2.0
